Source: patent publication US20210179623A1, “NEW CHEMICAL COMPOUND CONTAINING ACTIVE ENANTIOMETER S-(-) KETOROLAC TROMETHAMINE FOR THE TREATMENT OF PAIN” (priority 2017, published 2021)
Read-outs that look alike come from different tables or passages of the source.

Legend:
rat population = details: rats, oral route; FIG. 7
[1] = test system: gouty arthritis-type pain; assay: PIFIR pain-induced functional impairment model in the rat; assay type: in vivo, male Wistar rats; details: for MAXIMUM EFFICACY (ABC: X ± E.E.): dose of each analgesic (mg/kg); for Emax reached in the temporal curve / latency in reaching the Emax in the temporal curve: highest doses; for RELATIVE EFFICACY: relative to maximum efficacy of rac-ketorolac
Text: In order to determine and compare the antinociceptive effects of these analgesics the preclinical experimental model of PIFIR “pain-induced functional impairment model in the rat” was used.

[2] = cited from earlier work
plasmatic proteins = details: cited from earlier work
[3] = doses needed to generate 50% of the most effective effect, oral route

Molecule | lethal dose 50 (LD50) (rat population) | effective dose 50 (ED50, 50% of its own maximum effect) ([1]; PIFIR model, rats, oral route, FIG. 6) | MAXIMUM EFFICACY (ABC: X ± E.E.) ([1]; PIFIR model, rats, oral route) | ED60 (mg/kg, oral route) (with regard to Emax: 324 au) ([1]; PIFIR model, rats) [mg/kg] | times more potent than acetylsalicylic acid [1, 3] [times] | times more potent than morphine [1, 3] [times] | times more potent than rac-ketorolac [1, 3] [times] | fixed effect 4 hours after administration ([1]; higher doses, oral route, 4 hours) | Emax reached in the temporal curve ([1]; oral route) | latency in reaching the Emax in the temporal curve ([1]; oral route) | RELATIVE POTENCY (relative to 5-ketorolac) ([1]; PIFIR model, rats, oral route) | RELATIVE EFFICACY ([1]; PIFIR model, rats, oral route) | onset of the analgesic effects after administration ([2]; any presentation) [min] | excreted renally as a conjugated metabolite ([2]; in vivo) [%] | excreted renally as a hydroxylated metabolite ([2]; in vivo) [%] | excreted renally as the unaltered drug ([2]; in vivo) [%] | metabolized in the liver by conjugation ([2]; inactive metabolites) [%] | time of maximum level ([2]; intravenous and intramuscular use) | time of maximum level ([2]; oral administration, tablets or capsules) [h] | bonds with plasmatic proteins (plasmatic proteins) [%]
2-amino-2-hydroximethyl-1,3 propanediol (1:1) S-(−)-5-benzoyl-2,3-dihydro-1H-pyrrolizine-1-carboxylate [S-(−)-ketorolac tromethamine] | smaller than the acetylsalicylic acid, but larger than the one reported for rac-ketorolac and morphine | less than the rest of the active substances being studied | 310.5 ± 13.5 | 0.36 ± 1.0 | 1037 | 82 | 3.3 | the same as that exhibited for rac-ketorolac and by morphine but higher than that exhibited by acetylsalicylic acid | Emax similar to that exhibited by rac-ketorolac and morphine, but this Emax was higher than that exhibited by acetylsalicylic acid | latency similar to that exhibited by rac-ketorolac, but less than that exhibited by morphine | – | – | – | – | – | – | – | – | – | –
O=C(c1ccccc1)c1ccc2n1CCC2C(=O)O (racemic) [rac-ketorolac, ketorolac tromethamine] | – | – | 324.6 ± 7.8 | 1.19 ± 1.2 | – | – | – | – | – | – | −3.3 | 1.0 | 30 | 21.9 | 11.5 | 60.2 | 21 | first and second hour | 3 | 99
CC(=O)Oc1ccccc1C(=O)O [Acetylsalicylic Acid, acetylsalicylic acid] | – | – | 226.6 ± 11.7 | 373.3 ± 1.7 | – | – | – | – | smaller than those exhibited by the other analgesics | least latency in reaching its Emax | −1,036.9 | 0.70 | – | – | – | – | – | – | – | –
CN1CC[C@]23c4c5ccc(O)c4O[C@H]2[C@@H](O)C=C[C@H]3[C@H]1C5 [Morphine, morphine] | – | – | 310.8 ± 8.9 | 29.35 ± 1.1 | – | – | – | – | – | – | −81.5 | 1.0 | – | – | – | – | – | – | – | –
